Reference: patent US20080039444A1, “COMPOUNDS” (GLAXO GROUP LIMITED, priority 2006, published 2008)

How the values were obtained:
[1] = CNS penetration (intravenous bolus or infusion at steady state, blood and brain levels); format: in vivo, rat; settings: male CD Sprague Dawley rats
Method: (i) CNS penetration by bolus administration
Compounds are dosed intravenously at a nominal dose level of 1 mg/kg to male CD Sprague Dawley rats. Compounds are formulated in 5% DMSO/45% PEG200/50% water. Blood samples are taken under terminal anaesthesia with isoflurane at 5 min post-dose and the brains are also removed for assessment of brain penetration. Blood samples are taken directly into heparinised tubes. Blood samples are prepared for analysis using protein precipitation and brain samples are prepared using extraction of drug from brain by homogenisation and subsequent protein precipitation. The concentration of parent drug in blood and brain extracts is determined by quantitative LC-MS/MS analysis using compound-specific mass transitions.
(ii) CNS penetration following intravenous infusion at steady state
A loading dose of the compounds is given to male CD Sprague Dawley rats at a nominal dose level of 0.4 mg/kg. The compounds are then infused intravenously for 4 h at a nominal dose level of 0.1 mg/kg/h. Compounds are formulated in 2% DMSO/30% PEG200/68% water. Serial or terminal blood samples are taken at 0.5, 1.5, 2.5, 3, 3.5 and 4 h post dose. The final blood sample is collected under terminal anaesthesia with isoflurane and the brains are also removed for assessment of brain penetration. Blood samples are taken directly into heparinised tubes. Blood samples are prepared for analysis using protein precipitation and brain samples are prepared using extraction of drug from brain by homogenisation and subsequent protein precipitation. The concentration of parent drug in blood and brain extracts is determined by quantitative LC-MS/MS analysis using compound-specific mass transitions.

human H1 receptor [2] = target: T1, human H1 receptor (Homo sapiens, UniProt P35367); test: Histamine H1 functional antagonist assay (FLIPR): determination of antagonist pA2; format: cell-based
T1 construct: expressed in transfected cells
Method: (§1) The human H1 receptor is cloned using known procedures described in the literature [Biochem. Biophys. Res. Commun., 201(2):894 (1994)]. Chinese hamster ovary (CHO) cells stably expressing the human H1 receptor are generated according to known procedures described in the literature [Br. J. Pharmacol., 117(6):1071 (1996)].
Histamine H1 functional antagonist assay: Determination of antagonist pA2 and duration
The histamine H1 receptor expressing CHO cells are seeded into non-coated black-walled clear bottom 96-well tissue culture plates as described above. Following overnight culture, growth medium is removed from each well, washed with 200 μl phosphate buffered saline (PBS) and is replaced with 50 μl loading dye (250 μM Brilliant Black, 1 μM Fluo-4 diluted in Tyrodes buffer+probenecid (145 mM NaCl, 2.5 mM KCl, 10 mM HEPES, 10 mM D-glucose, 1.2 mM MgCl2, 1.5 mM CaCl2, 2.5 mM probenecid, pH adjusted to 7.40 with NaOH 1.0 M)). Cells are incubated for 45 min at 37° C. The loading buffer is removed and the cells are washed as above, and 90 μl of Tyrodes buffer+probenecid is added to each well. 10 μl of test compound, diluted to the required concentration in Tyrodes buffer+probenecid (or 10 μl Tyrodes buffer+probenecid as a control) is added to each well and the plate is incubated for 30 min at 37° C., 5% CO2. The plates are then placed into a FLIPR™ (Molecular Devices, UK) to monitor cell fluorescence (λex=488 nm, λEM=540 nm) in the manner described in Sullivan et al., (In: Lambert DG (ed.), Calcium Signaling Protocols, New Jersey: Humana Press, 1999, 125-136) before and after the addition of 50 μl histamine over a concentration range of 1 mM-0.1 nM. The resultant concentration response curves are analysed by non-linear regression using a standard four parameter logistic equation to determine the histamine EC50, the concentration of histamine required to produce a response of 50% of the maximum response to histamine. The antagonist pA2 is calculated using the following standard equation: pA2=log(DR-1)- log[B] where DR=dose ratio, defined as EC50antagonist-treated/EC50control and [B]=concentration of antagonist.

human H1 receptor [3] = target: T1, human H1 receptor; test: Histamine H1 functional antagonist assay (FLIPR): determination of functional pKi values; format: cell-based; settings: CHO cells expressing human H1, histamine at EC80; read-out: average pKi (pKb) at H1 (converted)
From the text: H1 receptor cell line generation and FLIPR assay protocol
1. Generation of histamine H1 cell line
as §1
Histamine H1 functional antagonist assay: Determination of functional pKi values […]
10 μl of test compound, diluted to the required concentration in Tyrodes buffer+probenecid (or 10 μl Tyrodes buffer+probenecid as a control) is added to each well and the plate is incubated for 30 min at 37° C., 5% CO2. The plates are then placed into a FLIPR™ (Molecular Devices, UK) to monitor cell fluorescence (λex=488 nm, αEM=540 nm) in the manner described in Sullivan et al., (In: Lambert DG (ed.), Calcium Signaling Protocols, New Jersey: Humana Press, 1999, 125-136) before and after the addition of 10 μl histamine at a concentration that results in the final assay concentration of histamine being EC80.
Functional antagonism is indicated by a suppression of histamine induced increase in fluorescence, as measured by the FLIPR™ system (Molecular Devices). By means of concentration effect curves, functional affinities are determined using standard pharmacological mathematical analysis.

T1 sequence (P35367 whole entry): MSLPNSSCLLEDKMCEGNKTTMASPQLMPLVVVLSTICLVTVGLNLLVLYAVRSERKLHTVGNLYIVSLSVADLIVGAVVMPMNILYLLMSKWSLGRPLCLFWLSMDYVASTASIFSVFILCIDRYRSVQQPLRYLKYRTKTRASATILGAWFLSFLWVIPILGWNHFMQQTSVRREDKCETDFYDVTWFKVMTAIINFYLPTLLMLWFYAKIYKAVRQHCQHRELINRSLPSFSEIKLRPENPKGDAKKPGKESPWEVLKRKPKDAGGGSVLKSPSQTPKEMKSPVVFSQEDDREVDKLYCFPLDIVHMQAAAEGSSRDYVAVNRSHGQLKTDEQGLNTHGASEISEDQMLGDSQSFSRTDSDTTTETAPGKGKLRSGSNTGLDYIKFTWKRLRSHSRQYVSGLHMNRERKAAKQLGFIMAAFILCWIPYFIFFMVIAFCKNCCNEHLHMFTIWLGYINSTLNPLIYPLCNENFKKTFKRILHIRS

O=c1c2ccccc2c(Cc2ccc(Cl)cc2)nn1C[C@H]1CCCN1CCCCc1ccc(OCCCN2CCCCCC2)cc1 [Example 24, 4-[(4-Chlorophenyl)methyl]-2-({(2R)-1-[4-(4-{[3-(hexahydro-1H-azepin-1-yl)propyl]oxy}phenyl)butyl]-2-pyrrolidinyl}methyl)-1(2H)-phthalazinone free base]
CNS penetration compared with azelastine [1]: lower CNS penetration than azelastine | Kb (human H1 receptor [2]): ~1.26 nM | Ki (human H1 receptor [3]): ~15.8 nM
